pIC50: −log10 of the molar value.
The compounds below were run against T1, human acetyl-CoA carboxylase 2 (ACC2) (Homo sapiens, UniProt O00763) (assay: Acetyl-CoA carboxylase enzyme assay (malonyl-CoA formation by LC/MS/MS)). Settings: recombinant human ACC2 (aa 144-2458); read-out: IC50 ACC2.
T1 construct: The cDNA encoding amino acids 144 to 2458 of human acetyl-CoA carboxylase 2; made in house; host or cells: Sf9 insect cells (baculovirus, pFastBac1)
Format: biochemical
Method in brief: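 Malonyl-CoA formation was read by LC/MS/MS MRM against a [13C3]-malonyl-CoA internal standard, after acetic acid quench. The enzyme was baculovirus/Sf9-expressed human ACC2 residues 144–2458, given 15 minutes room-temperature compound preincubation in HEPES pH 7.5 buffer with MgCl2, citrate and DTT. Substrate solution held 50 μM acetyl-CoA, 120 μM ATP and 2 mM KHCO3.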

T1 sequence (O00763 144-2458): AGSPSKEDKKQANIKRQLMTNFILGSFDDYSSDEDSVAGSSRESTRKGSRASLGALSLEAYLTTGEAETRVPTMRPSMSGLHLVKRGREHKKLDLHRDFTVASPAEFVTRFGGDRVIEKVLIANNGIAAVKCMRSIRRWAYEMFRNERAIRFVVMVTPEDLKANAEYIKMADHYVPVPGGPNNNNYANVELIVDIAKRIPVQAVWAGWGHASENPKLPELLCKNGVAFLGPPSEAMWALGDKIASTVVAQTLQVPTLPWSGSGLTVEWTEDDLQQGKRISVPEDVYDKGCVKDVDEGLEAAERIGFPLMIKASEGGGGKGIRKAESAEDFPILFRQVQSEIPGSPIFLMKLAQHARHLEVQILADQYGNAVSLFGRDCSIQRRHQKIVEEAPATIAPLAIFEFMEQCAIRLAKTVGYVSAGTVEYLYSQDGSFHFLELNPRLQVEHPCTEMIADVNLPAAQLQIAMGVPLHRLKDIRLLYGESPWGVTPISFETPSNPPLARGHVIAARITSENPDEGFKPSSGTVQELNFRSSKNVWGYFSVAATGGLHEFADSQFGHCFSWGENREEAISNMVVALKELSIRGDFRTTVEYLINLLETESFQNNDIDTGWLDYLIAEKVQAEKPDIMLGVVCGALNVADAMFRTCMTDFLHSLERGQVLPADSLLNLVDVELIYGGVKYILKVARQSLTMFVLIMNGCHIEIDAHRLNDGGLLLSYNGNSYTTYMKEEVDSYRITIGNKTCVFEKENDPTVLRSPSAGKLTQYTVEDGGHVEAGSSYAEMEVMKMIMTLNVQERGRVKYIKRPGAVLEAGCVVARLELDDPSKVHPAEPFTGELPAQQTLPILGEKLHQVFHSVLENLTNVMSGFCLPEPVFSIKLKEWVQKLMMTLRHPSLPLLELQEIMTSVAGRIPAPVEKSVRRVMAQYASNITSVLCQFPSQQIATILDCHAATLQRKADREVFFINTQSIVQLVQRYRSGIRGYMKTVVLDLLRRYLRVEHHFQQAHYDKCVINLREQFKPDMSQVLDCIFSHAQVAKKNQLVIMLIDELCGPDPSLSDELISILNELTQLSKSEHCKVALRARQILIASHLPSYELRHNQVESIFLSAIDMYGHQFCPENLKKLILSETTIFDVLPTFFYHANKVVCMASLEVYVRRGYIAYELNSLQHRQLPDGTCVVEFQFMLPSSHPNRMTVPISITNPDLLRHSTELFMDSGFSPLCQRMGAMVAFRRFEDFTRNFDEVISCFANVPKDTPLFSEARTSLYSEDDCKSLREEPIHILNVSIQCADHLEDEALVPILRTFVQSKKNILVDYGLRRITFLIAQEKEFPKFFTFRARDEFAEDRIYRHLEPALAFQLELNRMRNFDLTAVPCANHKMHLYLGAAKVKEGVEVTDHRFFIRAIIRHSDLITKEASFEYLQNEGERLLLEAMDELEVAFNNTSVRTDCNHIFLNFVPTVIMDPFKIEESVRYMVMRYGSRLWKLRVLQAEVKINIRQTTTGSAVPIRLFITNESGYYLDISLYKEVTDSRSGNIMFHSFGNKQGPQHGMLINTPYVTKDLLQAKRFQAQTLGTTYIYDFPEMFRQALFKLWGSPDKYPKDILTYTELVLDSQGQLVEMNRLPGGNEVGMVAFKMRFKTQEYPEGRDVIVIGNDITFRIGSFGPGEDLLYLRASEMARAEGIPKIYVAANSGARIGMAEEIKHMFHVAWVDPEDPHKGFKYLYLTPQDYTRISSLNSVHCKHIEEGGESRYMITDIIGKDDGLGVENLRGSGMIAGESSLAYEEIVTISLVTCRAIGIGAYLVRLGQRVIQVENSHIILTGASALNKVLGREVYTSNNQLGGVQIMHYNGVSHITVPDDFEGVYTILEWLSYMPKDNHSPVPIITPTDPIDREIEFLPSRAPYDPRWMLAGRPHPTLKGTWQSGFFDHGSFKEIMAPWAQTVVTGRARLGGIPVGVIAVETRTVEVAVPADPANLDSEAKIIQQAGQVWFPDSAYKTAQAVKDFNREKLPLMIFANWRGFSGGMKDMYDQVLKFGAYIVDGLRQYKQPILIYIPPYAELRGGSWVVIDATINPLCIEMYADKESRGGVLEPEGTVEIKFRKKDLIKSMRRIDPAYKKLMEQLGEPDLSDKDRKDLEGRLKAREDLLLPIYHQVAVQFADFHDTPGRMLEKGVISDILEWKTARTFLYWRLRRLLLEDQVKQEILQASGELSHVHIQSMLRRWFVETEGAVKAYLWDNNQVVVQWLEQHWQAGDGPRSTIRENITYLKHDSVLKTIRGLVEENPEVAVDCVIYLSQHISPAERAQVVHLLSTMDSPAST

| Compound | pIC50 |
| --- | --- |
| C[C@@H](NC(=O)[C@H]1CC[C@H](NS(=O)(=O)c2ccc3nc(N4CCOCC4)ccc3c2)CC1)c1ccc(F)cc1 [Example 213, (1r,4R)-N-((R)-1-(4-fluorophenyl)ethyl)-4-(2-morpholinoquinoline-6-sulfonamido)cyclohexanecarboxamide] | 7.02 |
| O=C(Nc1cccnc1)[C@H]1CC[C@H](NS(=O)(=O)c2ccc3[nH]c(-c4ccccc4)nc3c2)CC1 [Example 649, (1r,4r)-4-(2-phenyl-1H-benzo[d]imidazole-5-sulfonamido)-N-(pyridin-3-yl)cyclohexanecarboxamide] | 6.41 |
| C[C@@H](NC(=O)[C@H]1CC[C@H](NS(=O)(=O)c2cnc3c(c2)N(C)CCCN3C)CC1)c1ccc(F)cc1 [Example 128, (1r,4R)-4-(1,5-dimethyl-2,3,4,5-tetrahydro-1H-pyrido[2,3-b][1,4]diazepine-8-sulfonamido)-N-((R)-1-(4-fluorophenyl)ethyl)cyclohexanecarboxamide] | 6.84 |
| COCCOc1ccc(-c2cc3ccc(S(=O)(=O)N[C@H]4CC[C@H](C(=O)N5CCOC[C@@H]5C)CC4)cc3n2C)cc1 [Example 448, 2-(4-(2-methoxyethoxy)phenyl)-1-methyl-N-((1S,4r)-4-((S)-3-methylmorpholine-4-carbonyl)cyclohexyl)-1H-indole-6-sulfonamide] | 7.19 |
| CCOc1ccc2cc(S(=O)(=O)N[C@H]3CC[C@H](C(=O)N[C@H](COC(=O)[C@@H](N)C(C)C)c4ccccc4)CC3)ccc2n1 [Example 266, (S)-((S)-2-((1r,4S)-4-(2-ethoxyquinoline-6-sulfonamido)cyclohexanecarboxamido)-2-phenylethyl) 2-amino-3-methylbutanoate] | 6.85 |
| CC(C)OC(=O)c1ccc(NS(=O)(=O)c2ccc3nc(-c4ccc(C(=O)O)cc4)[nH]c3c2)cc1 [Example 509, 4-(6-(N-(4-(isopropoxycarbonyl)phenyl)sulfamoyl)-1H-benzo[d]imidazol-2-yl)benzoic acid] | 6.17 |
| O=C(OCc1ccccc1)N1CCN(C(=O)[C@H]2CC[C@H](NS(=O)(=O)c3cnc4c(c3)NCCN4)CC2)C(c2ccccc2)C1 (stereo partly drawn) [Example 181, benzyl 3-phenyl-4-((1r,4r)-4-(1,2,3,4-tetrahydropyrido[3,2-b]pyrazine-7-sulfonamido)cyclohexanecarbonyl)piperazine-1-carboxylate] | 6.94 |
| C=Cc1ccc2cc(S(=O)(=O)N[C@H]3CC[C@H](C(=O)N[C@H](C)c4ccc(F)cc4)CC3)ccc2n1 [Example 71, (1r,4R)-N-((R)-1-(4-fluorophenyl)ethyl)-4-(2-vinylquinoline-6-sulfonamido)cyclohexanecarboxamide] | 6.39 |
| COc1cccc(Nc2nc3cc(S(=O)(=O)Nc4ccc(C(=O)OC(C)C)cc4)ccc3[nH]2)c1 [Example 524, isopropyl 4-(2-(3-methoxyphenylamino)-1H-benzo[d]imidazole-5-sulfonamido)benzoate] | 6.44 |
| CC(C)OC(=O)c1ccc(NS(=O)(=O)c2ccc3nc(-c4cccc(F)c4)[nH]c3c2)cc1 [Example 496, isopropyl 4-(2-(3-fluorophenyl)-1H-benzo[d]imidazole-6-sulfonamido)benzoate] | 5.63 |
| O=S(=O)(Nc1ccc(-c2nnc(C3CCCCC3)o2)cc1)c1ccc2nc(-c3ccccc3)[nH]c2c1 [Example 519, N-(4-(5-cyclohexyl-1,3,4-oxadiazol-2-yl)phenyl)-2-phenyl-1H-benzo[d]imidazole-6-sulfonamide] | 4.49 |
| CC(C)(C)c1nnc([C@H]2CC[C@H](NS(=O)(=O)c3ccc4[nH]c(Nc5cccnc5)nc4c3)CC2)o1 [Example 654, N-((1r,4r)-4-(5-tert-butyl-1,3,4-oxadiazol-2-yl)cyclohexyl)-2-(pyridin-3-ylamino)-1H-benzo[d]imidazole-5-sulfonamide] | 6.80 |
| COCCOc1ccc(-c2cc3ccc(S(=O)(=O)N[C@H]4CC[C@H](C(=O)N[C@H](CO)C5CC5)CC4)cc3n2C)cc1 [Example 449, (1r,4S)-N-((S)-1-cyclopropyl-2-hydroxyethyl)-4-(2-(4-(2-methoxyethoxy)phenyl)-1-methyl-1H-indole-6-sulfonamido)cyclohexanecarboxamide] | 7.12 |
| O=C([C@H]1CC[C@H](NS(=O)(=O)c2cnc3c(c2)NCCN3)CC1)N1CCOCC1c1ccccc1 (stereo partly drawn) [Example 194, N-((1r,4r)-4-(3-phenylmorpholine-4-carbonyl)cyclohexyl)-1,2,3,4-tetrahydropyrido[3,2-b]pyrazine-7-sulfonamide] | 6.68 |
| CCN(C)C(=O)[C@H]1CC[C@H](NS(=O)(=O)c2ccc3cc(-c4ccc(CCC(=O)O)cc4)n(C)c3c2)CC1 [Example 365, 3-(4-(6-(N-((1r,4r)-4-(ethyl(methyl)carbamoyl)cyclohexyl)sulfamoyl)-1-methyl-1H-indol-2-yl)phenyl)propanoic acid] | 6.39 |
| Cn1c(C2CC2)c(C#N)c2ccc(S(=O)(=O)N[C@H]3CC[C@H](C(=O)N4CCOCC4)CC3)cc21 [Example 23, 3-cyano-2-cyclopropyl-1-methyl-N-((1r,4r)-4-(morpholine-4-carbonyl)cyclohexyl)-1H-indole-6-sulfonamide] | 6.82 |
| CC(C)OC(=O)c1ccc(NS(=O)(=O)c2ccc3nc(-c4ccc(O)cc4)[nH]c3c2)cc1 [Example 503, isopropyl 4-(2-(4-hydroxyphenyl)-1H-benzo[d]imidazole-6-sulfonamido)benzoate] | 6.09 |

Compounds with a higher pIC50, results first:

| pIC50 | Compound |
| --- | --- |
| 7.70 | Cc1cc(-c2ccc3cc(S(=O)(=O)N[C@H]4CC[C@H](C(=O)N[C@H](C)c5ccc(F)cc5)CC4)ccc3n2)ccn1 [Example 229, (1r,4R)-N-((R)-1-(4-fluorophenyl)ethyl)-4-(2-(2-methylpyridin-4-yl)quinoline-6-sulfonamido)cyclohexanecarboxamide] |
| 7.82 | C[C@@H](NC(=O)[C@H]1CC[C@H](NS(=O)(=O)c2ccc3[nH]c(-c4ccc(CN5CCOCC5)cc4)nc3c2)CC1)c1ccccc1 [Example 577, (1r,4R)-4-(2-(4-(morpholinomethyl)phenyl)-1H-benzo[d]imidazole-5-surfonamido)-N-((R)-1-phenylethyl)cyclohexanecarboxamide] |
| > 8.00 | Cn1c(C2CC2)cc2ccc(S(=O)(=O)N[C@H]3CC[C@H](C(=O)N[C@@H](c4ccccc4)C(C)(C)O)CC3)cc21 [Example 355, (1r,4S)-4-(2-cyclopropyl-1-methyl-1H-indole-6-sulfonamido)-N-((S)-2-hydroxy-2-methyl-1-phenylpropyl)cyclohexanecarboxamide] |
| 7.40 | COC(=O)N1CCNc2ncc(S(=O)(=O)N[C@H]3CC[C@H](C(=O)N[C@H](C)c4ccc(F)cc4)CC3)cc21 [Example 222, methyl 7-(N-((1R,4r)-4-((R)-1-(4-fluorophenyl)ethylcarbamoyl)cyclohexyl)sulfamoyl)-3,4-dihydropyrido[3,2-b]pyrazine-1(2H)-carboxylate] |
| 7.40 | C[C@@H](NC(=O)[C@H]1CC[C@H](NS(=O)(=O)c2ccc3nc(OC(C)(C)CO)ccc3c2)CC1)c1ccc(F)cc1 [Example 80, (1r,4R)-N-((R)-1-(4-fluorophenyl)ethyl)-4-(2-(1-hydroxy-2-methylpropan-2-yloxy)quinoline-6-sulfonamido)cyclohexanecarboxamide] |
| > 8.00 | Cn1c(-c2ccccc2)cc2ccc(S(=O)(=O)N[C@H]3CC[C@H](C(=O)N[C@@H](c4ccccc4)C(C)(C)O)CC3)cc21 [Example 352, (1r,4S)-N-((S)-2-hydroxy-2-methyl-1-phenylpropy1)-4-(1-methyl-2-phenyl-1H-indole-6-sulfonamido)cyclohexanecarboxamide] |
| 7.70 | Cc1ccccc1-c1cc2ccc(S(=O)(=O)N[C@H]3CC[C@H](C(=O)N4CCOC[C@@H]4C4CC4)CC3)cc2[nH]1 [Example 481, N-((1S,4r)-4-((S)-3-cyclopropylmorpholine-4-carbonyl)cyclohexyl)-2-o-tolyl-1H-indole-6-sulfonamide] |
| 7.27 | C[C@@H]1CN(C(=O)[C@H]2CC[C@H](NS(=O)(=O)c3ccc4[nH]c(-c5ccccc5)nc4c3)CC2)C[C@H](C)O1 [Example 664, N-((1R,4r)-4-((2S,6R)-2,6-dimethylmorpholine-4-carbonyl)cyclohexyl)-2-phenyl-1H-benzo[d]imidazole-5-sulfonamide] |
| > 8.00 | C[C@@H](NC(=O)[C@H]1CC[C@H](NS(=O)(=O)c2ccc3[nH]c(-c4ccc(F)cc4)nc3c2)CC1)c1ccccc1 [Example 276, (1r,4R)-4-(2-(4-fluorophenyl)-1H-benzo[d]imidazole-5-sulfonamido)-N-((R)-1-phenylethyl)cyclohexanecarboxamide] |
| 7.46 | O=C(O)CCc1ccc(-c2cc3ccc(S(=O)(=O)N[C@H]4CC[C@H](C(=O)N5CCCCC5)CC4)cc3[nH]2)cc1 [Example 358, 3-(4-(6-(N-((1r,4r)-4-(piperidine-1-carbonyl)cyclohexyl)sulfamoyl)-1H-indol-2-yl)phenyl)propanoic acid] |
| 7.70 | O=C([C@H]1CC[C@H](NS(=O)(=O)c2ccc3oc4ccccc4c3c2)CC1)N1CCNC[C@@H]1c1ccccc1 [Example 256, N-((1S,4r)-4-((S)-2-phenylpiperazine-1-carbonyl)cyclohexyl)dibenzo[b,d]furan-2-sulfonamide] |
| 7.77 | C[C@@H](NC(=O)[C@H]1CC[C@H](NS(=O)(=O)c2ccc3[nH]c(-c4ccccc4)nc3c2)CC1)C1CCCCC1 [Example 121, (1r,4R)-N-((R)-1-cyclohexylethyl)-4-(2-phenyl-1H-benzo[d]imidazole-5-sulfonamido)cyclohexanecarboxamide] |
| 7.30 | CCOc1ccc2cc(S(=O)(=O)N[C@H]3CC[C@H](C(=O)N[C@H](C)c4ccc(F)cc4)CC3)ccc2n1 [Example 36, (1r,4R)-4-(2-ethoxyquinoline-6-sulfonamido)-N—((R)-1-(4-fluorophenyl)ethyl)cyclohexanecarboxamide] |
